Drawing on ChEMBL document CHEMBL1156989, “Discovery of novel small molecule orally bioavailable C-X-C chemokine receptor 4 antagonists that are potent inhibitors of T-tropic (X4) HIV-1 replication” (J Med Chem, 2010), this text covers IC50 and CC50 for 39 molecules.

In general, pIC50 refers to the IC50 on a negative log10 scale, so that one unit is a factor of ten. A word on the CC50: it is the concentration giving 50% cytotoxicity.

SMILES strings stand for the structures. pIC50: −log10 of the molar value.

Data set [1] relates to Human immunodeficiency virus 1. The experiment in a line: Antiviral activity against HIV1 NL4.3 infected in human MT4 cells expressing CD4 and CXCR4 assessed as inhibition of virus-induced cytopathicity. The data set is classed as functional, organism-based. As to conditions: Human immunodeficiency virus 1, NL4.3, MT4. A general note: Protection from cytopathic effect is a common read-out in antiviral testing.

A short description of data set [2]: Cytotoxicity against human MT4 cells expressing CD4 and CXCR4 assessed as cell viability.
Data set [3] has as its target T1, C-X-C chemokine receptor type 4 (Homo sapiens, UniProt P61073). The data set can be described thus: Antagonist activity at CXCR4 in human CEM-CCRF cells assessed as inhibition of SDF-1-induced calcium flux. The data set is classed as functional, cell-based. On the technique in general: Calcium flux is commonly read through the fluorescence of an indicator in the cells.

In data set [4] the target is T1, C-X-C chemokine receptor type 4. The data set can be described thus: Inhibition of anti-CXCR4 12G5 monoclonal antibody to CXCR4 in human SUP-T1 cells pretreated for 30 mins by flow cytometry. The data set is classed as cell-based.
Where [5] appears, read: MT4 cells expressing CD4 and CXCR4.

T1 sequence (P61073 whole entry): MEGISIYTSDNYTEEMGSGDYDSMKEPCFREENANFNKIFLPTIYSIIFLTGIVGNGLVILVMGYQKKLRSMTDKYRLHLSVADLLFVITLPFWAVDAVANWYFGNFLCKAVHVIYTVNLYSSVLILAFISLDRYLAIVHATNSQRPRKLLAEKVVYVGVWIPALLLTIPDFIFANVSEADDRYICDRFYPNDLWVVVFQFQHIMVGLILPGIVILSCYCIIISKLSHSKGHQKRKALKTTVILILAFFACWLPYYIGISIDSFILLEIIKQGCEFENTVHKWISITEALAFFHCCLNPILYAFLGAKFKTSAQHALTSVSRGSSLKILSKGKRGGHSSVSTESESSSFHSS

In the case of `c1ccc(CCN(Cc2ccc(CNCc3ccccn3)cc2)C2CCCc3cccnc32)nc1` (configuration not stated), the pIC50 in data set [1] is 5.68. In addition, the CC50 in data set [2] (setting [5]) was > 118000 nM.

Take `NCc1cccc(CN(Cc2nc3ccccc3[nH]2)C2CCCc3cccnc32)c1` (configuration not stated): the pIC50 was 5.85 in data set [3] and 6.24 in data set [1]. The CC50 in data set [2] (setting [5]) is 45900 nM.

With `NCCCN(Cc1nc2ccccc2[nH]1)C1CCCc2cccnc21` (configuration not stated), the figures for the pIC50 in data set [3] and in data set [1] were 7.17 and 7.11, respectively. For the same molecule, the CC50 in data set [2] (setting [5]) was 32900 nM.

As to `NCCCCN(Cc1nc2ccccc2[nH]1)C1CCCc2cccnc21` (configuration not stated), the pIC50 in data set [1] is 8.32. For the same molecule, in data set [2] (setting [5]), the CC50 came to 160000 nM.

On to `NCCCCCCN(Cc1nc2ccccc2[nH]1)C1CCCc2cccnc21` (configuration not stated), for which the pIC50 in data set [3] was 7.12; in data set [1] it was 7.00. The CC50 in data set [2] (mt4) was determined as 30200 nM.

With `c1ccc(CNCCN(Cc2ccc(CNCc3ccccn3)cc2)C2CCCc3cccnc32)nc1` (configuration not stated), the pIC50 in data set [1] is 7.22. The CC50 in data set [2] (setting [5]) is 21000 nM.

Consider `NC/C=C\CN(Cc1nc2ccccc2[nH]1)C1CCCc2cccnc21` (configuration not stated), for which the results for the pIC50 in data set [3] and in data set [1] were 7.11 and 7.82, respectively. Besides, the CC50 in data set [2] (setting [5]) was 51900 nM.

Turning to `NC/C=C/CN(Cc1nc2ccccc2[nH]1)C1CCCc2cccnc21` (configuration not stated), the pIC50 was 6.80 in data set [3] and 7.55 in data set [1]. Besides, in data set [2] (setting [5]), the CC50 turned out to be 50800 nM.

Take `NCC#CCN(Cc1nc2ccccc2[nH]1)C1CCCc2cccnc21` (configuration not stated): the pIC50 in data set [3] was 6.01; in data set [1], 6.77. The CC50 in data set [2] (setting [5]) turned out to be 10800 nM.

Turning to `c1ccc(CNCc2ccc(CN(Cc3nc4ccccc4s3)C3CCCc4cccnc43)cc2)nc1` (configuration not stated), the pIC50 in data set [1] was 5.34. The CC50 in data set [2] (setting [5]) is 22300 nM.

In the case of `c1ccc(CNCc2ccc(CNC3CCCCc4cccnc43)cc2)nc1` (configuration not stated), in data set [1], the pIC50 is 5.60.

For the molecule `c1ccc(CNCc2ccc(CN(CCc3nc4ccccc4[nH]3)C3CCCc4cccnc43)cc2)nc1` (configuration not stated), the pIC50 in data set [1] was 5.96. Further, the CC50 in data set [2] (setting [5]) is 23100 nM.

With `c1ccc(CNCc2ccc(CN(Cc3nc4ccccc4[nH]3)[C@@H]3CCCc4cccnc43)cc2)nc1`, the figures for the negative-log IC50 (pIC50) in data set [1] and in data set [4] were 5.97 and 4.53, respectively.

As for `c1ccc(CNCc2ccc(CN(Cn3cnc4ccccc43)C3CCCc4cccnc43)cc2)nc1` (configuration not stated), the pIC50 in data set [1] is 4.73. Besides, the CC50 in data set [2] (setting [5]) stood at 21000 nM.

With `c1ccc(CNCc2ccc(CN(Cc3ccccn3)C3CCc4cccnc43)cc2)nc1` (configuration not stated), the negative-log IC50 (pIC50) in data set [1] is 5.31. In addition, the CC50 in data set [2] (setting [5]) stood at 124000 nM.

In the case of `c1ccc(CNCc2ccc(CN(Cc3ccccn3)C3CCCc4cccnc43)cc2)nc1` (configuration not stated), the pIC50 in data set [1] is 6.57. Also, the CC50 in data set [2] (setting [5]) was 44000 nM.

As to `c1ccc(CNCc2ccc(CNC3CCc4cccnc43)cc2)nc1` (configuration not stated), in data set [1], the pIC50 was 4.85.

Consider `c1ccc(CNCc2ccc(CNC3CCCc4cccnc43)cc2)nc1` (configuration not stated), for which the pIC50 in data set [1] is 5.57.

Turning to `c1ccc(CN(Cc2ccc(CNCc3ccccn3)cc2)C2CCCc3cccnc32)cc1` (configuration not stated), the pIC50 in data set [1] is < 5.37. For the same molecule, the CC50 in data set [2] (setting [5]) is 21000 nM.

Take `c1ccc(CNCc2ccc(CN(Cc3ncc[nH]3)C3CCCc4cccnc43)cc2)nc1` (configuration not stated): the pIC50 in data set [1] was 6.70. Moreover, the CC50 in data set [2] (setting [5]) stood at 500 nM.

For `NCCN(Cc1ccc(CNCc2ccccn2)cc1)C1CCCc2cccnc21` (configuration not stated), the pIC50 in data set [1] is < 4.60. For the same molecule, the CC50 in data set [2] (setting [5]) is 126000 nM.

For `c1ccc(CNCc2ccc(CN(Cc3nc4ccccc4o3)C3CCCc4cccnc43)cc2)nc1` (configuration not stated), the pIC50 in data set [1] is 5.04. For the same molecule, the CC50 in data set [2] (setting [5]) stood at 204000 nM.

In the case of `c1ccc(CNCCN(Cc2ccc(CNCc3ccccn3)cc2)C2CCCc3cccnc32)cc1` (configuration not stated), the pIC50 in data set [1] was 6.04. Further, in data set [2] (setting [5]), the CC50 came to 23000 nM.

With `c1ccc(CNCc2ccc(CN(CCCc3nc4ccccc4[nH]3)C3CCCc4cccnc43)cc2)nc1` (configuration not stated), the pIC50 in data set [1] was 5.92. In data set [2] (setting [5]), the CC50 came out at 101000 nM.

For the molecule `O=C(Nc1ccc(CN(Cc2nc3ccccc3[nH]2)C2CCCc3cccnc32)cc1)c1ccccn1` (configuration not stated), the pIC50 in data set [1] was 6.18. Moreover, the CC50 in data set [2] (setting [5]) turned out to be 37500 nM.

With `O=C(NCc1ccc(CN(Cc2nc3ccccc3[nH]2)C2CCCc3cccnc32)cc1)c1ccccn1` (configuration not stated), the pIC50 in data set [1] was 6.06. Further, the CC50 in data set [2] (setting [5]) is 36800 nM.

As to `CN(C)CCCCN(Cc1nc2ccccc2[nH]1)C1CCCc2cccnc21` (configuration not stated), the values for the pIC50 in data set [3] and in data set [1] were 7.06 and 7.29, respectively. The CC50 in data set [2] (setting [5]) came to 29500 nM.

As for `CNCCCCN(Cc1nc2ccccc2[nH]1)C1CCCc2cccnc21` (configuration not stated), the pIC50 in data set [3] was 6.72. The 50% cytotoxic concentration (CC50) in data set [2] (setting [5]) amounted to 28200 nM.

With `O=C(Nc1ccccn1)c1ccc(CN(Cc2nc3ccccc3[nH]2)C2CCCc3cccnc32)cc1` (configuration not stated), the pIC50 in data set [1] was 6.01. Also, in data set [2] (setting [5]), the CC50 worked out at 34300 nM.

On to `O=C(NCc1ccccn1)c1ccc(CN(Cc2nc3ccccc3[nH]2)C2CCCc3cccnc32)cc1` (configuration not stated), for which the pIC50 in data set [1] was 5.84. For the same molecule, the CC50 in data set [2] (setting [5]) was 127000 nM.

In the case of `NCc1ccc(CN(Cc2nc3ccccc3[nH]2)C2CCCc3cccnc32)cc1` (configuration not stated), the values for the pIC50 in data set [3] and in data set [1] were 6.92 and 6.78, respectively. The CC50 in data set [2] (setting [5]) was found to be 238000 nM.

In the case of `NCCCCCN(Cc1nc2ccccc2[nH]1)C1CCCc2cccnc21` (configuration not stated), the pIC50 is 6.29 in data set [3] and 7.13 in data set [1]. Besides, in data set [2] (setting [5]), the CC50 worked out at 30200 nM.

Regarding `N#CCCCCN(Cc1nc2ccccc2[nH]1)C1CCCc2cccnc21` (configuration not stated), the pIC50 in data set [3] is 6.35; in data set [1] it was 6.11. Besides, the CC50 in data set [2] (mt4) was 55300 nM.

Consider `NCCCC(=O)N(Cc1nc2ccccc2[nH]1)C1CCCc2cccnc21` (configuration not stated), for which the pIC50 is 5.49 in data set [3] and 5.58 in data set [1]. The CC50 in data set [2] (setting [5]) was 152000 nM.

For `c1ccc(CNCc2ccc(CN(Cc3nc4ccccc4[nH]3)C3CCCc4cccnc43)cc2)cc1` (configuration not stated), the negative logarithm of the IC50 (pIC50) in data set [1] was 7.02. In addition, the CC50 in data set [2] (setting [5]) turned out to be 26400 nM.

`NCc1ccccc1CN(Cc1nc2ccccc2[nH]1)C1CCCc2cccnc21` (configuration not stated): the values for the pIC50 in data set [3] and in data set [1] were 7.30 and 7.68, respectively. The CC50 in data set [2] (setting [5]) is 29600 nM.

Regarding `NCCCCN(Cc1nc2ccccc2[nH]1)[C@@H]1CCCc2cccnc21`, the pIC50 in data set [1] is 6.84.

Consider `NCCN(Cc1nc2ccccc2[nH]1)C1CCCc2cccnc21` (configuration not stated), for which the pIC50 in data set [3] and in data set [1] was 5.86 throughout. Also, the CC50 in data set [2] (setting [5]) is 6860 nM.

Consider `c1ccc(CNCc2ccc(CN(Cc3cc4ccccc4[nH]3)C3CCCc4cccnc43)cc2)nc1` (configuration not stated), for which, in data set [1], the pIC50 is 5.80. In data set [2] (setting [5]), the CC50 worked out at 8000 nM.
